ChEMBL document CHEMBL2434948, “Discovery, synthesis, and characterization of an orally bioavailable, brain penetrant inhibitor of mixed lineage kinase 3” (J Med Chem, 2013)
Calls of active or inactive are those of the source. The rule behind the calls is not given here.

Columns and labels:
[1] = molecular target: Receptor-type tyrosine-protein kinase FLT3 (Homo sapiens) (UniProt P36888); assay: Inhibition of wild type human FLT3 at 1 umol by high throughput ATP-[33P] radiolabeled assay relative to control
[2] = molecular target: Mitogen-activated protein kinase kinase kinase 11 (Mus musculus, UniProt Q80XI6)
Chain of Mitogen-activated protein kinase kinase kinase 11 (Mus musculus, UniProt Q80XI6) (Q80XI6 whole entry): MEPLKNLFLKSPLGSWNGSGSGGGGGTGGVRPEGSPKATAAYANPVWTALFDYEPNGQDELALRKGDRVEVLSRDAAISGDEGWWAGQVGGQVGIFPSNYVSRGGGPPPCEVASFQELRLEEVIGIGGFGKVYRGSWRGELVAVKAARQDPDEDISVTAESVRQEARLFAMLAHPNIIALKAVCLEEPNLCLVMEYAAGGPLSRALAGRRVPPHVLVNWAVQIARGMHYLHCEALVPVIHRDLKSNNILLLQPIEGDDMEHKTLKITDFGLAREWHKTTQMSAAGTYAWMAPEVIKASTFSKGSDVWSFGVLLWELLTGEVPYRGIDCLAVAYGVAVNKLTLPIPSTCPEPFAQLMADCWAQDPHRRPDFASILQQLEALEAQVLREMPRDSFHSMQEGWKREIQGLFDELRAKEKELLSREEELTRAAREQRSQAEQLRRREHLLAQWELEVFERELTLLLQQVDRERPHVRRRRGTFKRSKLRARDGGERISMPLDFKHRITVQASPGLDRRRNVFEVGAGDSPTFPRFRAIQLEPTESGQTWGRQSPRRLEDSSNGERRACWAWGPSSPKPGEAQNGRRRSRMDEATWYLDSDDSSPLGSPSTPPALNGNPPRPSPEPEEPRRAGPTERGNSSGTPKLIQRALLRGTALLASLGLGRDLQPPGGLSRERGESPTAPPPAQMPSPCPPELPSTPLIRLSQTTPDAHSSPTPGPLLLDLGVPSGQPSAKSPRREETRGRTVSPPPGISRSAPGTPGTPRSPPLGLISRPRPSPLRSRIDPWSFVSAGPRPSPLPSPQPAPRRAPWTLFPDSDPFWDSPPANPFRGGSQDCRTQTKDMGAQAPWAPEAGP

[3] = molecular target: T1, Mitogen-activated protein kinase kinase kinase 11 (Homo sapiens, UniProt Q16584)
T1 sequence (Q16584 whole entry): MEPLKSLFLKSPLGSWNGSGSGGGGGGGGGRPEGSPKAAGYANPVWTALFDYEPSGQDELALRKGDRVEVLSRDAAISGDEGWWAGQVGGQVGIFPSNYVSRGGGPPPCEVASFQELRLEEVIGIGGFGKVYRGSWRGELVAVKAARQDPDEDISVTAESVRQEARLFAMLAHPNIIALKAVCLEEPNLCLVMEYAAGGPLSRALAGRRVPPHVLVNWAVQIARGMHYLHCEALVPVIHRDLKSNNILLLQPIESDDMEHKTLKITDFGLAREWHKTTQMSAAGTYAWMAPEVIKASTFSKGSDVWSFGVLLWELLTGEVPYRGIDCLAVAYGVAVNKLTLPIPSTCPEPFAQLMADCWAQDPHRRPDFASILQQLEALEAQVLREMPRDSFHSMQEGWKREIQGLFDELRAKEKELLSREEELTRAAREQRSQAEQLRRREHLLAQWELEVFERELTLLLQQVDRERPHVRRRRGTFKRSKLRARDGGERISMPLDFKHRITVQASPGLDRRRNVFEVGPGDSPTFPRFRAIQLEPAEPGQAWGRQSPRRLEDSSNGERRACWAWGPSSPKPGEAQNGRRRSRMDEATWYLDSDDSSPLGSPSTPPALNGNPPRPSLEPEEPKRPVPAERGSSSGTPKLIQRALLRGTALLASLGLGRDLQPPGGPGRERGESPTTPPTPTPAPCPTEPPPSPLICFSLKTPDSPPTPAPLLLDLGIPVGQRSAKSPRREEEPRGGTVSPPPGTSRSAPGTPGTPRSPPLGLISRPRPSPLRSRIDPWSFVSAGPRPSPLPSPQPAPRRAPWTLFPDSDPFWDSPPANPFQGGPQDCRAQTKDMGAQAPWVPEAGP
Description: Inhibition of MLK3 (unknown origin) after 20 mins by scintillation counting analysis in presence of [33P]-ATP

[4] = molecular target: T2, Leucine-rich repeat serine/threonine-protein kinase 2 (Homo sapiens, UniProt Q5S007)
Description: Inhibition of human wild type LRRK2 by qPCR analysis

Cytochrome P450 3A4 = Cytochrome P450 3A4 (Homo sapiens, UniProt P08684)
Chain of Cytochrome P450 3A4 (P08684 whole entry): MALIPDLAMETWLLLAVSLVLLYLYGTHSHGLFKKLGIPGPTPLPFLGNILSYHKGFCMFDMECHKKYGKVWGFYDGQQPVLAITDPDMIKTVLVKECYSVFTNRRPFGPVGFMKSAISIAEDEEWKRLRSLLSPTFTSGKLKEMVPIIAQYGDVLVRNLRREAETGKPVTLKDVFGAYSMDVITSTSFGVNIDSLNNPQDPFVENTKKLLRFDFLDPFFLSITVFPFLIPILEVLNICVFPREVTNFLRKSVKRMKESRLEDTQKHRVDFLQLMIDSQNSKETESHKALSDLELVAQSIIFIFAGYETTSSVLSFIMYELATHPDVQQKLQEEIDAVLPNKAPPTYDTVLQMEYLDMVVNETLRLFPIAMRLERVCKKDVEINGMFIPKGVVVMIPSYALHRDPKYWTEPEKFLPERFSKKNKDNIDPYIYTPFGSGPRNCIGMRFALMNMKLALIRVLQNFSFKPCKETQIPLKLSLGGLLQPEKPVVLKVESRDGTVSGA
Description: Inhibition of CYP3A4 in human liver microsomes assessed as inhibition of dextromethorphan metabolism by HPLC/MS analysis

Cytochrome P450 2C9 = Cytochrome P450 2C9 (Homo sapiens, UniProt P11712)
Chain of Cytochrome P450 2C9 (P11712 whole entry): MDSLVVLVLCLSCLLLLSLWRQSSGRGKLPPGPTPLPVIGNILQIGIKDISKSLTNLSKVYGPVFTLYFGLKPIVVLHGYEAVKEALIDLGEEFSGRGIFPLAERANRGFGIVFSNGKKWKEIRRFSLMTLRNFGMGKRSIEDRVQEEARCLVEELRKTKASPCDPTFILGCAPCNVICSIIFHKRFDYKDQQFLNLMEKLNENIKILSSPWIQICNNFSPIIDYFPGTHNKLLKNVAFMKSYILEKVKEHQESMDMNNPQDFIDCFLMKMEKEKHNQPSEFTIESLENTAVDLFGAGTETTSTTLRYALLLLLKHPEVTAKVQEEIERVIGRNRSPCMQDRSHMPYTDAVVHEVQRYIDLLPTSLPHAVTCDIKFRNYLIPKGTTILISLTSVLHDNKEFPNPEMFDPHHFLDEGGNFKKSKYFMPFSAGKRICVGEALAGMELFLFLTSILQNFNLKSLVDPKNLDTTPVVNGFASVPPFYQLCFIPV
Description: Inhibition of CYP2C9 in human liver microsomes assessed as inhibition of midazolam metabolism by HPLC/MS analysis

Cytochrome P450 2D6 = Cytochrome P450 2D6 (Homo sapiens, UniProt P10635)
Chain of Cytochrome P450 2D6 (P10635 whole entry): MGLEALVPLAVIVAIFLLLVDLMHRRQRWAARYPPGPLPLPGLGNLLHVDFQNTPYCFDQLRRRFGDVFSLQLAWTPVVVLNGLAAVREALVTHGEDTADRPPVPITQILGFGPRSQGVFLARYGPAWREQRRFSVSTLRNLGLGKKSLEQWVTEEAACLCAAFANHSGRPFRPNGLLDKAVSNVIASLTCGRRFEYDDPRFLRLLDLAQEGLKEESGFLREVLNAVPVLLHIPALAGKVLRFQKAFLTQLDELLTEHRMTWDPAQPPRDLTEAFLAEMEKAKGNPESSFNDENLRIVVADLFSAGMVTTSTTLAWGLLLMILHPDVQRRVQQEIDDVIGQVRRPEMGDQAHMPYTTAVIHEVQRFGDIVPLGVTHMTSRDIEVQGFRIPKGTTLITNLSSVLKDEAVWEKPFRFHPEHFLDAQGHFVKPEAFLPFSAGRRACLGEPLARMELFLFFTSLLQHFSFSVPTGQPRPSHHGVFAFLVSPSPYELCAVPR
Description: Inhibition of CYP2D6 in human liver microsomes assessed as inhibition of diclofenac metabolism by HPLC/MS analysis

[5] = molecular target: T3, Tyrosine-protein kinase ABL1 (Homo sapiens, UniProt P00519); assay: Inhibition of human wild type ABL1 at 1 uM by qPCR analysis relative to control
[6] = molecular target: T3, Tyrosine-protein kinase ABL1; assay: Inhibition of human ABL1 mutant at 1 uM by qPCR analysis
[7] = molecular target: TRAF2 and NCK-interacting protein kinase (Homo sapiens) (UniProt Q9UKE5); assay: Binding affinity to human wild type TNIK at 1 uM by qPCR analysis
[8] = molecular target: Ribosomal protein S6 kinase alpha-6 (Homo sapiens) (UniProt Q9UK32); assay: Inhibition of human wild type RSK4 at 1 uM by qPCR analysis
Chain of Ribosomal protein S6 kinase alpha-6 (Homo sapiens) (Q9UK32 whole entry): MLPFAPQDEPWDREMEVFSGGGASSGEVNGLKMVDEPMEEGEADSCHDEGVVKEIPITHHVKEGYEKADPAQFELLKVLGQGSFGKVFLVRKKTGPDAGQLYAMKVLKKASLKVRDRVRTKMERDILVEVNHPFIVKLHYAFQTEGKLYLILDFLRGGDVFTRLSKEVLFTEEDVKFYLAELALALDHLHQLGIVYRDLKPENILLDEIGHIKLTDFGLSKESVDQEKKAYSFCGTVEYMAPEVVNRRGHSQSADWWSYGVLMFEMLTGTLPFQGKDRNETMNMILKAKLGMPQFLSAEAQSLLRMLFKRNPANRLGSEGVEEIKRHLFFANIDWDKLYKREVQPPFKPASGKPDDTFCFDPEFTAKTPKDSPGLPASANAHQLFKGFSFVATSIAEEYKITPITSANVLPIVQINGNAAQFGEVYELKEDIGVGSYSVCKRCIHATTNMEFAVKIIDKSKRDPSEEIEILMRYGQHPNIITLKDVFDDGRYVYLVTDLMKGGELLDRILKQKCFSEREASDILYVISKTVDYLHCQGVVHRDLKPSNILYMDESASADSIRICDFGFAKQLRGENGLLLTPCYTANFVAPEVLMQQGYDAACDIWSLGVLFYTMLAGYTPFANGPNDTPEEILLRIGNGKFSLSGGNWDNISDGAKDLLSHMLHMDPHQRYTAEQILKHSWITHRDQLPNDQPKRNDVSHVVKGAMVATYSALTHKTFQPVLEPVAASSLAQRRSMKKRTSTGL

[9] = molecular target: Mitogen-activated protein kinase kinase kinase kinase 4 (Homo sapiens) (UniProt O95819); assay: Binding affinity to human wild type MAP4K4 at 1 uM by qPCR analysis
[10] = molecular target: Ribosomal protein S6 kinase alpha-1 (Homo sapiens) (UniProt Q15418); assay: Inhibition of human wild type RSK1 at 1 uM by qPCR analysis
[11] = molecular target: 5'-AMP-activated protein kinase catalytic subunit alpha-2 (Homo sapiens) (UniProt P54646); assay: Inhibition of human wild type AMPKalpha2 at 1 uM by qPCR analysis relative to control
[12] = molecular target: Calcium/calmodulin-dependent protein kinase type II subunit delta (Homo sapiens) (UniProt Q13557); assay: Inhibition of human wild type CAMK2D at 1 uM by qPCR analysis relative to control
Chain of Calcium/calmodulin-dependent protein kinase type II subunit delta (Homo sapiens) (Q13557 whole entry): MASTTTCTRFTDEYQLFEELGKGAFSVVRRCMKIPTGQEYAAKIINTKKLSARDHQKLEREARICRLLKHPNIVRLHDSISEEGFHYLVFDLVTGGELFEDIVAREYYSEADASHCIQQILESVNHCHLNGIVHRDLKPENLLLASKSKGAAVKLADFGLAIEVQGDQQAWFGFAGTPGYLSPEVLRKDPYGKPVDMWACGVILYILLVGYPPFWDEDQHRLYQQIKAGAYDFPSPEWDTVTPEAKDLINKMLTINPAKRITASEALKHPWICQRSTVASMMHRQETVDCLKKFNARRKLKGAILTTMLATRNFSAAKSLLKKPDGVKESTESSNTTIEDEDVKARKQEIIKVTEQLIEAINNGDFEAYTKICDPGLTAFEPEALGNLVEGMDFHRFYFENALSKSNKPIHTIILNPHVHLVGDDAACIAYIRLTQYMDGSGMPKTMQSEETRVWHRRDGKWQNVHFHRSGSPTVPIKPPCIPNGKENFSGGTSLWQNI

[13] = molecular target: Serine/threonine-protein kinase BRSK2 (Homo sapiens) (UniProt Q8IWQ3); assay: Inhibition of human wild type BRSK2 at 1 uM by qPCR analysis relative to control
[14] = molecular target: Calcium/calmodulin-dependent protein kinase type II subunit alpha (Homo sapiens) (UniProt Q9UQM7); assay: Inhibition of human wild type CAMK2A at 1 uM by qPCR analysis relative to control
[15] = molecular target: Aurora kinase C (Homo sapiens) (UniProt Q9UQB9); assay: Inhibition of human wild type Aurora kinase C at 1 uM by qPCR analysis relative to control
[16] = molecular target: Aurora kinase A (Homo sapiens) (UniProt O14965); assay: Inhibition of human wild type Aurora kinase A at 1 uM by qPCR analysis relative to control
[17] = molecular target: T4, Mitogen-activated protein kinase kinase kinase 9 (Homo sapiens, UniProt P80192); assay: Inhibition of human wild type MLK1 at 1 uM by qPCR analysis relative to control
[18] = molecular target: Calcium/calmodulin-dependent protein kinase type 1D (Homo sapiens) (UniProt Q8IU85); assay: Inhibition of human wild type CAMK1D at 1 uM by qPCR analysis relative to control
Chain of Calcium/calmodulin-dependent protein kinase type 1D (Homo sapiens) (Q8IU85 whole entry, looked up): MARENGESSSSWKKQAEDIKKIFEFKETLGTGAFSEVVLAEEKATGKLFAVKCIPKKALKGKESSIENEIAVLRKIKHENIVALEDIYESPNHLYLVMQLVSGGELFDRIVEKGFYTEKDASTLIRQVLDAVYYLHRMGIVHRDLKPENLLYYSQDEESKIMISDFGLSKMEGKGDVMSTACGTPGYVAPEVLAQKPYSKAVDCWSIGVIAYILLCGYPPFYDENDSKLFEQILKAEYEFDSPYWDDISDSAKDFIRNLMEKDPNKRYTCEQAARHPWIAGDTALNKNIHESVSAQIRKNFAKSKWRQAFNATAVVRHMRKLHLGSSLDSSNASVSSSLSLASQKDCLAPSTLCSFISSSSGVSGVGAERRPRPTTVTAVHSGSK

[19] = tested on: Leucine-rich repeat serine/threonine-protein kinase 2 (Homo sapiens), Q5S007 [G2019S]; assay: Inhibition of human LRRK2 G2019S mutant at 1 uM by qPCR analysis relative to control
[20] = molecular target: T2, Leucine-rich repeat serine/threonine-protein kinase 2; assay: Inhibition of human wild type LRRK2 at 1 uM by qPCR analysis relative to control
[21] = molecular target: Mast/stem cell growth factor receptor Kit (Homo sapiens) (UniProt P10721); assay: Inhibition of human wild type KIT at 1 uM by qPCR analysis relative to control
[22] = molecular target: Receptor-type tyrosine-protein kinase FLT3 (Homo sapiens) (UniProt P36888); assay: Inhibition of human wild type FLT3 at 1 uM by qPCR analysis relative to control
[23] = molecular target: T4, Mitogen-activated protein kinase kinase kinase 9
Description: Inhibition of MLK1 (unknown origin) after 20 mins in presence of [33P]-ATP

[24] = molecular target: Mitogen-activated protein kinase kinase kinase 10 (Homo sapiens, UniProt Q02779)
Description: Inhibition of MLK2 (unknown origin) after 20 mins in presence of [33P]-ATP

[25] = molecular target: T1, Mitogen-activated protein kinase kinase kinase 11; remark: listed apart in the source
Description: Inhibition of MLK3 (unknown origin) after 20 mins in presence of [33P]-ATP

[26] = molecular target: T5, Receptor-type tyrosine-protein kinase FLT3 (Homo sapiens, UniProt P36888)
T5 sequence (P36888 whole entry): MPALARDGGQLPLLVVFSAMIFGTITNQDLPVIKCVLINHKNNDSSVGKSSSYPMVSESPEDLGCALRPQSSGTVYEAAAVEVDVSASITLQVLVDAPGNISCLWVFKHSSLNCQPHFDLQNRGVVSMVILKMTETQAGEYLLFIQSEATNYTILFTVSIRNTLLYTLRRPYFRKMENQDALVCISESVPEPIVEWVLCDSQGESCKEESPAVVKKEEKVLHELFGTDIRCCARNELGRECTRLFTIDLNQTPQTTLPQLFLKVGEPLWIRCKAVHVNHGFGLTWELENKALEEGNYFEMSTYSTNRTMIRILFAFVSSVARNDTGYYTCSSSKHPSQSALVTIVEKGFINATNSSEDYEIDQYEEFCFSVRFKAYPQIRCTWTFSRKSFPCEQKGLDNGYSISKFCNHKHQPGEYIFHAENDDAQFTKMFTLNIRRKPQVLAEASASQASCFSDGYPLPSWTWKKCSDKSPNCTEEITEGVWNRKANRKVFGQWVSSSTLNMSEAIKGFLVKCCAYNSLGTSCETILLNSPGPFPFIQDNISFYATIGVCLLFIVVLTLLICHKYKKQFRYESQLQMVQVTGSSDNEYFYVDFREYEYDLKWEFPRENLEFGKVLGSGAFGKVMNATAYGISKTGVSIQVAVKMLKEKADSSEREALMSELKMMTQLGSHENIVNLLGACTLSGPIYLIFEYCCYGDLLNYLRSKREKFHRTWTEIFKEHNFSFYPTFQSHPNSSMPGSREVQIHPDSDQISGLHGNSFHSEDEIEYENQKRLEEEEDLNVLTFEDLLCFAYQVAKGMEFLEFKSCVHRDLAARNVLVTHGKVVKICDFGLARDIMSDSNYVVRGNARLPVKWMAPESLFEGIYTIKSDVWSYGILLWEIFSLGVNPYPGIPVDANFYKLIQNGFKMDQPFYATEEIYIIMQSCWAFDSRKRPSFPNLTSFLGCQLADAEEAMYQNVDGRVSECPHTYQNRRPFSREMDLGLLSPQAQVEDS
Description: Inhibition of wild type human FLT3 by high throughput ATP-[33P] radiolabeled assay

[27] = molecular target: Inhibitor of nuclear factor kappa-B kinase subunit alpha (Homo sapiens, UniProt O15111)
Description: Inhibition of wild type human IKKa by high throughput ATP-[33P] radiolabeled assay

[28] = molecular target: Inhibitor of nuclear factor kappa-B kinase subunit beta (Homo sapiens, UniProt O14920)
Description: Inhibition of wild type human IKKb by high throughput ATP-[33P] radiolabeled assay

[29] = molecular target: Tyrosine-protein kinase ABL1 (Homo sapiens, UniProt P00519, T315I)
Description: Inhibition of wild type human ABL1 T315I mutant by high throughput ATP-[33P] radiolabeled assay

Insulin receptor = Insulin receptor (Homo sapiens, UniProt P06213)
Description: Inhibition of wild type human IR by high throughput ATP-[33P] radiolabeled assay

[30] = molecular target: Cyclin-dependent kinase 2 (Homo sapiens, UniProt P24941)
Description: Inhibition of wild type human CDK2 by high throughput ATP-[33P] radiolabeled assay

[31] = molecular target: T5, Receptor-type tyrosine-protein kinase FLT3; assay: cell-based
Description: Inhibition of FLT3-L-stimulated wild type full length human FLT3 autophosphorylation expressed in MEF preincubated for 90 mins followed by FLT3-L stimulation measured after 5 mins by ELISA

**Q.** For `Nc1ccc(-c2cnc3[nH]cc(-c4ccc5[nH]ccc5c4)c3c2)cn1`, which inhibition [1] is on record?
**A.** 98%

**Q.** What about the IC50 [2] of the same molecule?
**A.** 430 nM

**Q.** What about the IC50 [3] of the same molecule?
**A.** 19 nM

**Q.** And the IC50 [4]?
**A.** 46 nM

**Q.** What about the IC50 (Cytochrome P450 3A4) of the same molecule?
**A.** 4200 nM

**Q.** And the IC50 (Cytochrome P450 2C9)?
**A.** 13700 nM

**Q.** And the IC50 (Cytochrome P450 2D6)?
**A.** 3700 nM

**Q.** `CCSCc1ccc2c(c1)c1c3c(c4c5cc(CSCC)ccc5n5c4c1n2[C@H]1C[C@](O)(C(=O)OC)[C@]5(C)O1)CNC3=O` [CEP-1347] was tested. Which inhibition [5] did it give?
**A.** inactive

**Q.** And the inhibition [6]?
**A.** inactive

**Q.** And the inhibition [7]?
**A.** Active

**Q.** And the inhibition [8]?
**A.** Active

**Q.** What about the inhibition [9] of the same molecule?
**A.** Active

**Q.** What about the inhibition [10] of the same molecule?
**A.** Active

**Q.** What about the inhibition [11] of the same molecule?
**A.** 98%

**Q.** And the inhibition [12]?
**A.** 87%

**Q.** What about the inhibition [13] of the same molecule?
**A.** 94%

**Q.** And the inhibition [14]?
**A.** 84%

**Q.** And the inhibition [15]?
**A.** > 99%

**Q.** What about the inhibition [16] of the same molecule?
**A.** > 99%

**Q.** And the inhibition [17]?
**A.** > 99%

**Q.** And the inhibition [18]?
**A.** > 99%

**Q.** And the inhibition [19]?
**A.** 98%

**Q.** What about the inhibition [20] of the same molecule?
**A.** 100%

**Q.** What about the inhibition [21] of the same molecule?
**A.** > 99%

**Q.** And the inhibition [22]?
**A.** > 99%

**Q.** And the IC50 [23]?
**A.** < 1 nM

**Q.** And the IC50 [24]?
**A.** 2 nM

**Q.** What about the IC50 [25] of the same molecule?
**A.** 6 nM

**Q.** With `Nc1ncc(-c2cnc3[nH]cc(-c4ccc5[nH]ccc5c4)c3c2)cn1` as the molecule, how does the inhibition [1] read?
**A.** 97%

**Q.** What about the IC50 [2] of the same molecule?
**A.** 510 nM

**Q.** What about the IC50 [3] of the same molecule?
**A.** 78 nM

**Q.** And the IC50 (Cytochrome P450 3A4)?
**A.** 21800 nM

**Q.** And the IC50 (Cytochrome P450 2C9)?
**A.** > 30000 nM

**Q.** What about the IC50 (Cytochrome P450 2D6) of the same molecule?
**A.** 13200 nM

**Q.** With `COc1cc(-c2cnc3[nH]cc(-c4cnc(N)nc4)c3c2)cc(OC)c1OC` as the molecule, how does the IC50 [2] read?
**A.** 990 nM

**Q.** And the IC50 [3]?
**A.** 9 nM

**Q.** What about the IC50 (Cytochrome P450 3A4) of the same molecule?
**A.** > 30000 nM

**Q.** What about the IC50 (Cytochrome P450 2C9) of the same molecule?
**A.** > 30000 nM

**Q.** And the IC50 (Cytochrome P450 2D6)?
**A.** > 30000 nM

**Q.** Which results are given for `COc1cc(-c2cnc3[nH]c(=O)n(-c4ccc5[nH]ccc5c4)c3n2)cc(OC)c1OC`?
**A.** inhibition [1]: 88%; IC50 [4]: 2970 nM

**Q.** With `COc1cc(-c2cnc3[nH]cc(-c4ccc(N)nc4)c3c2)cc(OC)c1OC` as the molecule, how does the inhibition [1] read?
**A.** 99%

**Q.** And the IC50 [2]?
**A.** 120 nM

**Q.** What about the IC50 [3] of the same molecule?
**A.** 7 nM

**Q.** And the IC50 [4]?
**A.** 5 nM

**Q.** And the IC50 (Cytochrome P450 3A4)?
**A.** > 30000 nM

**Q.** And the IC50 (Cytochrome P450 2C9)?
**A.** > 30000 nM

**Q.** What about the IC50 (Cytochrome P450 2D6) of the same molecule?
**A.** > 30000 nM

**Q.** How did the inhibition [1] turn out when `COc1cc(-c2cnc3[nH]cc(-c4ccc5[nH]ccc5c4)c3c2)cc(OC)c1OC` was run?
**A.** 98%

**Q.** What about the IC50 [2] of the same molecule?
**A.** 2700 nM

**Q.** And the IC50 [3]?
**A.** 3 nM

**Q.** What about the IC50 [4] of the same molecule?
**A.** 35 nM

**Q.** And the IC50 (Cytochrome P450 3A4)?
**A.** > 30000 nM

**Q.** What about the IC50 (Cytochrome P450 2C9) of the same molecule?
**A.** > 30000 nM

**Q.** What about the IC50 (Cytochrome P450 2D6) of the same molecule?
**A.** > 30000 nM

**Q.** `CN1CCN(Cc2ccc(-c3cnc4[nH]cc(-c5cnc6[nH]ccc6c5)c4c3)cc2)CC1` was tested. Which IC50 [3] did it give?
**A.** 21 nM

**Q.** What about the IC50 [26] of the same molecule?
**A.** 9.5 nM

**Q.** What about the IC50 [27] of the same molecule?
**A.** 330 nM

**Q.** And the IC50 [28]?
**A.** 288 nM

**Q.** What about the IC50 [29] of the same molecule?
**A.** 285 nM

**Q.** What about the IC50 (Insulin receptor) of the same molecule?
**A.** 1290 nM

**Q.** And the IC50 [30]?
**A.** 720 nM

**Q.** And the IC50 [31]?
**A.** 730 nM
